Source: US20160022751A1, “NOVEL COMPOSITION FOR TREATING ALZHEIMER'S DISEASE AND IMPROVING COGNITIVE FUNCTION OF ALZHEIMER'S PATIENTS” (GANGNEUNG-WONJU NATIONAL UNIVERSITY INDUSTRY ACADEMY …, priority 2014, published 2016)

Tested on: ERK
Test: ERK phosphorylation in HMO6 cells (western blot)
Assay type: cell-based, human
Details: Rg3 5 μg/ml, western blot (FIG. 18)
Protocol: FIG. 18 is a photograph showing a result of western blot analysis for confirming the degree of phosphorylation of ERK (extracellular-regulated kinase) and p38, according to an embodiment of the present invention. Depending on the presence of Rg3, the levels of phospho-ERK and phospho-p38 protein were investigated by immune-blotting. HMO6 cells were treated with Rg3 (5 μg/ml) after plated on 60 mm cell culture plates and western blot analysis was performed after the cells were placed in phenol red negative/sere-free DMEM medium for 1 h. The western blot analysis was carried out three times independently.
HMO6 cells were lysed in 1% RIPA buffer containing protease and phosphatase inhibitors (Roche, Mannheim, Germany) and whole-cell lysates were separated on 10% sodium dodecyl sulfate-polyacrylamide gel electrophoresis. After electrophoresis, the proteins were transferred to polyvinylidene fluoride membranes, and the membranes were blocked with 5% skim milk in Tris-buffered saline solution containing 0.1% Tween-20. The membranes were then immunoblotted with primary antibodies, anti-phospho-p38, anti-p38, anti-phospho-ERK, anti-ERK, and anti-f3-actin (Santa Cruz Biotechnology, USA), followed by incubation with horseradish peroxidase-conjugated anti-rabbit or anti-mouse secondary antibodies (Stressgen, USA). Blots were developed using an enhanced chemiluminescent solution (Thermo, USA).

CC(C)=CCC[C@](C)(O)[C@H]1CC[C@]2(C)[C@@H]1[C@H](O)C[C@@H]1[C@@]3(C)CC[C@H](O[C@@H]4O[C@H](CO)[C@@H](O)[C@H](O)[C@H]4O[C@@H]4O[C@H](CO)[C@@H](O)[C@H](O)[C@H]4O)C(C)(C)[C@@H]3CC[C@]12C [ginsenoside Rg3]
phosphorylation of ERK: promoted the phosphorylation
